Assay: Fuel solubility: miscibility in blends with commercial diesel
Format: physicochemical
Source text: Fuel solubility is a primary concern for diesel fuel applications. Not all highly polar oxygenates have good solubility in the current commercial diesel fuels.

[1] = all blend ratios with commercial diesel

Row | miscibility with commercial diesel (5 vol % blend with commercial diesel) | miscibility with commercial diesel (25 vol % blend with commercial diesel) | miscibility with commercial diesel (40 vol % blend with commercial diesel) | Structure (SMILES) | miscibility with commercial diesel [1]
1 |  |  |  | CCOCc1ccc(C)o1 [5-(ethoxymethyl)-2-methylfuran] | miscible in all blend ratio's
2 |  |  |  | Cc1ccc(COC(C)(C)C)o1 [5-(tertbutoxymethyl)-2-methylfuran] | miscible in all blend ratio's
3 | completely miscible | phase separation occurs | phase separation occurs | CCOCc1ccc(C=O)o1 [EMF, 5-(ethoxymethyl)furfural] | 

From patent publication US20100212218A1, “5-(SUBSTITUTED METHYL) 2-METHYLFURAN” (FURANIX TECHNOLOGIES B.V., priority 2007, published 2010)
